# Assay results reported in patent US20060079453A1, “Hla binding peptides and their uses” (priority 2002, published 2006).
# No end group written: not given here.
# How the values were obtained:
# Assay in all cases: biochemical
# Format in all cases: binding
# HLA-DR DRB5*0101 (DR51) = HLA-DR DRB5*0101 (DR51) (Homo sapiens, UniProt P01903+Q30154); conditions: DRB5 *0101
# HLA-DR DRB1*0901 (DR9) = HLA-DR DRB1*0901 (DR9) (Homo sapiens, UniProt P01903+P01911, A100R/A103E/D57H/D86V/F55Y/F60I/F76Y/I96F/K127E/L162R/M171V/P40D/Q125H/Q99R/R33Q/R42F/S133A/S66N/T210M/V115G/W38K/Y107V/Y59G/Y89S); conditions: DRB1 *0901
# HLA-DR DRB1*0401 (DR4) = HLA-DR DRB1*0401 (DR4) (Homo sapiens, UniProt P01903+P01911, A100K/A169T/F76Y/I96L/K127E/L162R/M171V/N62H/P40V/Q125Y/R42H/S133A/S149N/S66Y/V115G/V209L/W38E); conditions: DRB1 *0401
# HLA-DR DRB1*1302 (DR13) = HLA-DR DRB1*1302 (DR13) (Homo sapiens, UniProt P01903+P01911, A100E/A169T/K41T/L162R/M171V/P40S/Q125H/Q178H/Q39Y/Q99D/R42S/S66N/T262R/V115G/W38E/Y61H); conditions: DRBI *1302
# HLA-DR DRB1*0301 (DR3) = HLA-DR DRB1*0301 (DR3) (Homo sapiens, UniProt P01903+P01911, A100K/A102G/A103R/A169T/F55Y/I96L/K41T/L162R/M171V/P40S/Q125H/Q178H/Q39Y/R42S/S66N/T106N/T262R/W38E/Y61H)
# HLA-DR DRB1*1101 (DR11) = HLA-DR DRB1*1101 (DR11) (Homo sapiens, UniProt P01903+P01911, A100R/A169T/A87E/I96F/K41T/L162R/M171V/P40S/Q125H/Q178H/Q39Y/Q99D/R42S/S66Y/T262R/V115G/W38E); conditions: DRB1 *1101
# HLA-DR DRB1*0101 (DR1) = HLA-DR DRB1*0101 (DR1) (Homo sapiens, UniProt P01903+P01911, A100R/D57E/F55L/F60I/F76Y/I96L/L162R/M171V/P40L/Q125E/R42F/V115G/Y59C); conditions: DRB1 *0101
# HLA-DR DRB4*0101 (DR53) = HLA-DR DRB4*0101 (DR53) (Homo sapiens, UniProt P01903+P13762, G164S); conditions: DRB4 *0101
# HLA-DR DRB1*0405 (DR4) = HLA-DR DRB1*0405 (DR4) (Homo sapiens, UniProt P01903+P01911, A100R/A169T/D86S/F76Y/I96L/K127E/L162R/M171V/N62H/P40V/Q125Y/R42H/S133A/S149N/S66Y/V115G/V209L/W38E); conditions: DRB1 *0405
# HLA-DR DRB1*1501 (DR15) = HLA-DR DRB1*1501 (DR15) (Homo sapiens, UniProt P01903+P01911); conditions: DRBI *1501
# HLA-DR DRB1*0701 (DR7) = HLA-DR DRB1*0701 (DR7) (Homo sapiens, UniProt P01903+P01911, A100R/A102G/A103Q/D57E/D86V/E43K/F76Y/K127E/L162R/M171V/P40G/Q125H/Q99D/R33Q/R42Y/R54Q/S133A/S66F/T210M/V115G/Y107V/Y59L/Y89S); conditions: DRB1 *0701
# HLA-DR DRB1*0802 (DR8) = HLA-DR DRB1*0802 (DR8) (Homo sapiens, UniProt P01903+P01911, A100R/A103L/A169T/F76Y/H45Y/I96F/K41T/L162R/M171V/P40S/Q125H/Q178H/Q39Y/Q99D/R218S/R42G/S66Y/V115G/W38E)
# HLA-DR DRB3*0101 (DR52) = HLA-DR DRB3*0101 (DR52) (Homo sapiens, UniProt P01903+P79483)
# Sequence of HLA-DR DRB1*1302 (DR13) (P01903 26-254 limits assumed, other chains not shown): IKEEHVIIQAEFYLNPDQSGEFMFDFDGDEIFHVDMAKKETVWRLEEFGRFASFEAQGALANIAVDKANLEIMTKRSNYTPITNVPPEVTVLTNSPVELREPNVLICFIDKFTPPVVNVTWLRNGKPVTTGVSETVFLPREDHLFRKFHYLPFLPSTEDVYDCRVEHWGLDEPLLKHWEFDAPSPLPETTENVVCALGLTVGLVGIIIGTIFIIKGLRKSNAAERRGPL
# Sequence of HLA-DR DRB1*0301 (DR3) (P01903 26-254 limits assumed, other chains not shown): as above
# Sequence of HLA-DR DRB1*1101 (DR11) (P01903 26-254 limits assumed, other chains not shown): as above
Sequence,IC50 (HLA-DR DRB5*0101 (DR51)) [µM],IC50 (HLA-DR DRB1*0901 (DR9)) [µM],IC50 (HLA-DR DRB1*0401 (DR4)) [µM],IC50 (HLA-DR DRB1*1302 (DR13)) [µM],IC50 (HLA-DR DRB1*0301 (DR3)) [µM],IC50 (HLA-DR DRB1*1101 (DR11)) [µM],IC50 (HLA-DR DRB1*0101 (DR1)) [µM],IC50 (HLA-DR DRB4*0101 (DR53)) [µM],IC50 (HLA-DR DRB1*0405 (DR4)) [µM],IC50 (HLA-DR DRB1*1501 (DR15)) [µM],IC50 (HLA-DR DRB1*0701 (DR7)) [µM],IC50 (HLA-DR DRB1*0802 (DR8)) [µM],IC50 (HLA-DR DRB3*0101 (DR52)) [µM]
ALLKNYGLLYTFRKD,0.029,2.63,0.16,0.00089,5.98,1.74,0.019,1.34,0.303,0.0065,5.92,3.62,0.05
DMDKVETFLRIVQTR,,51.5,2.03,3.38,11.2,0.206,1.11,0.19,0.454,> 86.7,0.436,0.183,13.7
EHTSLNENITVPDTK,5.55,> 78.9,,0.013,33.6,> 408,43.9,> 29,1.24,11.1,37.2,> 16.3,> 42.2
FVNQHLCGSHLVEAL [FVNQHLCGSHLVEAL],47.2,> 63,19.2,10.6,> 187,> 1110,0.583,,> 20.7,1.2,0.679,> 54.4,> 95.2
ICLLLIQSWLEPVQF,> 9.51,> 59.5,11.3,0.954,50.9,> 15.4,,0.049,0.071,1.77,0.643,> 33.3,188
KEDSHTAWTIVRVEI,0.575,6.08,0.746,3.05,44.8,7.44,1.91,0.018,0.302,1.99,0.035,> 79,56.2
KLQTYPRTNTGSGTP,> 14,> 29.2,> 26.5,0.987,> 205,8.21,> 10.1,> 105,> 9.81,0.52,> 99.2,> 51.6,> 263
LHKLQTYPRTNTGSG,0.04,> 29.2,,> 12.6,> 205,6.09,2.12,22.9,> 7.4,0.157,40.2,1.62,> 263
NSLVYGASDSNIYDL,> 9.51,> 59.5,0.24,,> 51.4,> 15.4,,3.29,1.23,0.971,0.297,> 33.3,31.6
QHLTGSHLVEALYLV,23.7,42.3,> 16.1,6.86,50.3,> 10.5,0.0093,,7.42,0.184,0.038,> 54.4,4.03
QLAFDTYQEFEQNPQ,> 9.51,> 59.5,28.6,19.7,7.85,> 15.4,> 18,> 32.8,4.84,> 86.7,21.1,> 33.3,0.738
QSQKLLWQLNGRLEY,0.402,5.92,0.084,0.155,33.4,> 60.6,0.127,,0.055,0.108,,0.991,5.61
RLRIVRGTQLFEDNYAL,0.046,1.83,8.39,0.0052,11.3,2.07,0.0048,0.12,1.02,0.031,0.012,6.32,1.2
RSSNTQTQKLLWQLN,8.55,> 77.3,2.14,,44.3,> 42.6,10.5,0.026,12.6,2.74,27.7,1.28,0.751
SDSNIYDLLKDLEEG,> 9.51,50.1,17.5,> 16.2,124,> 15.4,> 18,24.3,0.137,> 86.7,> 85,> 33.3,> 18.7
TCVLGKLSQELHKLQ,3.99,17.9,14.8,> 12.6,29.5,1.4,0.026,0.163,9,2.01,18.7,7.66,> 263
TSNLSTTVLGKLSQE,2.53,2.47,8.02,9.33,86.8,0.534,,,9.28,7.7,31.3,2.06,> 263
TTVLGKLSQELHKLQ,10.6,23.8,,12.7,92.8,3.52,,0.241,> 9.81,0.525,,16.2,> 263
VCGERGFFYTPKTRR,0.092,14.4,> 20.5,34.7,1.99,3.82,9.62,> 31,> 15.1,> 25.6,5.49,0.419,17.4
VEALYLVCGERGFFY,25.5,2.23,0.209,4.4,17.6,3.56,0.076,0.03,1.04,,3.87,24.6,4.44
VEALYLVCGERGSFY,0.804,6.31,,4.29,9.97,> 10.5,0.088,,6.11,1.24,6.49,> 54.4,> 95.2
VTGERGFFYTPKTRR,0.54,> 300,7.23,25.4,3.02,10.1,18.9,> 29.8,13.4,2.82,27.8,9.41,244
